{
  "source": "paper PMC7700809",
  "about": "(Molecular Biomedicine, 2020)",
  "key": {"SARS-CoV-2 [1]": {"tested_on": "SARS-CoV-2", "assay": "microbe, parasite or virus in culture", "assay_type": "cell-based", "conditions": "Severe acute respiratory syndrome coronavirus 2, Vero, read-out: EC50 antiviral replication effect"}, "SARS-CoV-2 [2]": {"tested_on": "SARS-CoV-2", "assay": "microbe, parasite or virus in culture", "assay_type": "cell-based"}},
  "data": [
    {"smiles": "CCC(CC)COC(=O)[C@H](C)N[P@](=O)(OC[C@H]1O[C@@](C#N)(c2ccc3c(N)ncnn23)[C@H](O)[C@@H]1O)Oc1ccccc1", "note": "[Remdesivir]", "values": [
      {"measurement": "EC50", "setting": "SARS-CoV-2 [1]", "value": 240, "unit": "nM"},
      {"measurement": "virus entry blocking", "setting": "SARS-CoV-2 [2]", "value": "could not block the virus entry"}
    ]}
  ]
}
